# Laboratory results reported in ChEMBL document CHEMBL5543126, “Combinatorial Ubiquitination REal-time PROteolysis (CURE-PROs): A Modular Platform for Generating Reversible, Self-Assembling Bifunctional Targeted Degraders” (J Med Chem, 2024).
# The source made the active and inactive calls. The rule behind the calls is not given here.
# What was measured:
# Type in all cases: cell-based
# [1] = target: T1, Protein cereblon/Bromodomain-containing protein 4 (Homo sapiens) (UniProt O60885+Q96SW2); assay: PROTAC activity at BRD4/CRBN in human HeLa cells assessed as induction of BRD4 degradation at 10 uM incubated for 24 hrs in presence of CRBN based ligand (1S,4R,5R,6S)-N-((2-(2,6-dioxopiperidin-3-yl)-1,3-dioxoisoindolin-4-yl)methyl)-5,6-dihydroxybicyclo[2.2.1]heptane-2-carboxamide by Western blot analysis based Combinatorial Ubiquitination Real-time PROteolysis analysis
# T1 sequence (Q96SW2 whole entry, looked up, other chains not shown): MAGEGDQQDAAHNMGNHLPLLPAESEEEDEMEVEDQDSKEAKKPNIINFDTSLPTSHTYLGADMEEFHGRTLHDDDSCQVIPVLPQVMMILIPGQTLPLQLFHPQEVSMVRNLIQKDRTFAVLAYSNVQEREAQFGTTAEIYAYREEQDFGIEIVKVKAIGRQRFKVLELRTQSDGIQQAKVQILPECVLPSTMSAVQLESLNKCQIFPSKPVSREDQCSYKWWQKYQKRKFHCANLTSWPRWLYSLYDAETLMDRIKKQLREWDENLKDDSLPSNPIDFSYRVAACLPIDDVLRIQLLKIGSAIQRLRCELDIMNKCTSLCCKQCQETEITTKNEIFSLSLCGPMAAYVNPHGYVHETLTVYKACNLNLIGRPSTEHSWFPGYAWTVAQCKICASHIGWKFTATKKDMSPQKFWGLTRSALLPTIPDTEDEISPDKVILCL
# [2] = target: T2, von Hippel-Lindau disease tumor suppressor/Bromodomain-containing protein 4 (Homo sapiens, UniProt O60885+P40337); assay: (§1) PROTAC activity at BRD4/VHL in human MCF7 cells assessed as induction of BRD4 degradation by measuring residual activity at 30 nM incubated for 24 hrs in presence of 100 nM VHL based ligand (2S,4R)-1-((S)-2-(2,3-dihydroxybenzamido)-3,3-dimethylbutanoyl)-4-hydroxy-N-(4-(4-methylthiazol-5-yl)benzyl)pyrrolidine-2-carboxamide by Western blot based Combinatorial Ubiquitination Real-time PROteolysis analysis
# T2 sequence (P40337 whole entry, looked up, other chains not shown): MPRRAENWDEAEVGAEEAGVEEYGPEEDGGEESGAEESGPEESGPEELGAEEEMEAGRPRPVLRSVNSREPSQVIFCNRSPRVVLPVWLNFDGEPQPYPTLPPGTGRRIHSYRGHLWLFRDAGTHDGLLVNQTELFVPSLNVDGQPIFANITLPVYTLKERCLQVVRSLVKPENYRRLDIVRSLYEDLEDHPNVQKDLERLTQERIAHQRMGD
# [3] = target: T2, von Hippel-Lindau disease tumor suppressor/Bromodomain-containing protein 4; assay: as §1, with “reduction in” for “induction of”, “level” for “degradation by measuring residual activity at 30 nM”, “[…]” for “100 nM VHL”
# [4] = target: T2, von Hippel-Lindau disease tumor suppressor/Bromodomain-containing protein 4; assay: as §1, with “100” for “30”
# [5] = target: T2, von Hippel-Lindau disease tumor suppressor/Bromodomain-containing protein 4; assay: as §1, with “VHL/BRD4” for “BRD4/VHL”, “HEK293” for “human MCF7”, “degradation rate” for “residual activity”, “1 uM measured every 15 mins” for “30 nM incubated”, “of” for “of 100 nM”, “HiBiT” for “Western blot”
# [6] = target: T2, von Hippel-Lindau disease tumor suppressor/Bromodomain-containing protein 4; assay: (§2) PROTAC activity at BRD4/VHL in human MCF7 cells assessed as induction of BRD4 degradation by measuring residual activity at 1 uM incubated for 24 hrs in presence of 100 nM BRD4 based ligand ((4S)-6-(4-chlorophenyl)-4-(2-(ethylamino)-2-oxoethyl)-1-methyl4Hbenzo[f][1,2,4]triazolo [4,3-a][1,4]diazepin-8-yl)boronic acid by Western blot based Combinatorial Ubiquitination Real-time PROteolysis analysis
# [7] = target: T2, von Hippel-Lindau disease tumor suppressor/Bromodomain-containing protein 4; assay: as §1, with “of” for “of 100 nM”
# [8] = target: T1, Protein cereblon/Bromodomain-containing protein 4 (Homo sapiens); assay: PROTAC activity at BRD4/CRBN in human HeLa cells assessed as induction of BRD4 degradation at 10 uM incubated for 24 hrs in presence of CRBN based ligand N-((2-(2,6-dioxopiperidin-3-yl)-1,3-dioxoisoindolin-4-yl)methyl)-2,3-dihydroxybenzamide by Western blot analysis based Combinatorial Ubiquitination Real-time PROteolysis analysis
# [9] = target: T2, von Hippel-Lindau disease tumor suppressor/Bromodomain-containing protein 4; assay: as §1, with “VHL/BRD4” for “BRD4/VHL”, “HEK293” for “human MCF7”, “degradation rate” for “residual activity”, “3 uM measured every 15 mins” for “30 nM incubated”, “of” for “of 100 nM”, “HiBiT” for “Western blot”
# [10] = target: T2, von Hippel-Lindau disease tumor suppressor/Bromodomain-containing protein 4; assay: PROTAC activity at VHL/BRD4 in human MCF7 cells assessed as induction of BRD4 degradation at 10 uM incubated for 24 hrs in presence of BRD4 ligand based ((4S)-6-(4-chlorophenyl)-4-(2-(ethylamino)-2-oxoethyl)-1-methyl4Hbenzo[f][1,2,4]triazolo [4,3-a][1,4]diazepin-8-yl)boronic acid by Western blot based Combinatorial Ubiquitination Real-time PROteolysis analysis
# [11] = target: T2, von Hippel-Lindau disease tumor suppressor/Bromodomain-containing protein 4; assay: as §2, with “100 nM” for “1 uM”
# [12] = target: T2, von Hippel-Lindau disease tumor suppressor/Bromodomain-containing protein 4; assay: (§3) PROTAC activity at VHL/BRD4 in HEK293 cells assessed as induction of BRD4 degradation by measuring degradation rate at 10 uM measured every 15 mins for 24 hrs in presence of BRD4 based ligand ((4S)-6-(4-chlorophenyl)-4-(2-(ethylamino)-2-oxoethyl)-1-methyl4Hbenzo[f][1,2,4]triazolo [4,3-a][1,4]diazepin-8-yl)boronic acid by HiBiT based Combinatorial Ubiquitination Real-time PROteolysis analysis
# [13] = target: T2, von Hippel-Lindau disease tumor suppressor/Bromodomain-containing protein 4; assay: as §2, with “30 nM” for “1 uM”, “300” for “100”
# [14] = target: T2, von Hippel-Lindau disease tumor suppressor/Bromodomain-containing protein 4; assay: as §3, with “measuring maximal level of” for “measuring”, “degradation” for “degradation rate”, “3” for “10”
# [15] = target: T2, von Hippel-Lindau disease tumor suppressor/Bromodomain-containing protein 4; assay: as §2, with “at 10” for “at 1”, “of 300” for “of 100”
# [16] = target: T2, von Hippel-Lindau disease tumor suppressor/Bromodomain-containing protein 4; assay: as §2, with “30 nM” for “1 uM”, “1 uM” for “100 nM”
# [17] = target: T2, von Hippel-Lindau disease tumor suppressor/Bromodomain-containing protein 4; assay: as §3, with “3” for “10”
# [18] = target: T2, von Hippel-Lindau disease tumor suppressor/Bromodomain-containing protein 4; assay: as §2, with “at 3” for “at 1”, “of 1 uM” for “of 100 nM”
# [19] = target: T2, von Hippel-Lindau disease tumor suppressor/Bromodomain-containing protein 4; assay: as §2, with “at 10” for “at 1”, “of 1 uM” for “of 100 nM”
# [20] = target: T2, von Hippel-Lindau disease tumor suppressor/Bromodomain-containing protein 4; assay: as §2, with “at 3” for “at 1”, “of 300” for “of 100”
# [21] = target: T2, von Hippel-Lindau disease tumor suppressor/Bromodomain-containing protein 4; assay: as §2, with “300 nM” for “1 uM”, “1 uM” for “100 nM”
# [22] = target: T2, von Hippel-Lindau disease tumor suppressor/Bromodomain-containing protein 4; assay: as §2, with “100 nM” for “1 uM”, “1 uM” for “100 nM”
# [23] = target: T2, von Hippel-Lindau disease tumor suppressor/Bromodomain-containing protein 4; assay: as §3, with “measuring maximal level of” for “measuring”, “degradation” for “degradation rate”, “0.3” for “10”
# [24] = target: T2, von Hippel-Lindau disease tumor suppressor/Bromodomain-containing protein 4; assay: as §2, with “at 10” for “at 1”, “of” for “of 100 nM”
compound,measurement,setting,value
CCNC(=O)C[C@@H]1N=C(c2ccc(Cl)cc2)c2cc(B(O)O)ccc2-n2c(C)nnc21,Activity,[1],inactive
same,Activity,[2],89%
same,Activity,[3],Active
same,DC50,[3],358 nM
same,Activity,[4],97%
same,Activity,[5],0.548 h⁻¹
same,Activity,[6],56%
same,Activity,[7],91%
same,Activity,[8],inactive
same,Activity,[9],0.908 h⁻¹
Cc1ncsc1-c1ccc(CNC(=O)[C@@H]2C[C@@H](O)CN2C(=O)[C@@H](NC(=O)c2cccc(O)c2O)C(C)(C)C)cc1,Activity,[10],Active
same,Activity,[11],97%
same,Activity,[12],4.18 h⁻¹
same,Activity,[13],104%
same,Emax,[14],93%
same,Activity,[15],48%
same,Activity,[16],96%
same,Activity,[17],0.908 h⁻¹
same,Activity,[18],32%
same,Activity,[19],21%
same,Activity,[20],39%
same,Activity,[21],38%
same,Activity,[22],101%
same,Emax,[23],47%
same,Activity,[24],95%
